Test results from US9409908B2 (priority 2012, dated 2016).
pKi: −log10 of the molar value. Where a name gives a salt, the structure may show the parent alone.

How the values were obtained:
[1] = molecular target: purified human plasma kallikrein (Homo sapiens (Human), UniProt P03952); assay: biochemical; assay type: biochemical; conditions: read-out: Plasma Kallikrein Ki
[2] = molecular target: purified human Factor XIa (Homo sapiens (Human), UniProt P03951); assay: biochemical; assay type: biochemical; conditions: read-out: Factor XIa Ki
purified human Factor XIa, sequence (P03951 whole entry, looked up): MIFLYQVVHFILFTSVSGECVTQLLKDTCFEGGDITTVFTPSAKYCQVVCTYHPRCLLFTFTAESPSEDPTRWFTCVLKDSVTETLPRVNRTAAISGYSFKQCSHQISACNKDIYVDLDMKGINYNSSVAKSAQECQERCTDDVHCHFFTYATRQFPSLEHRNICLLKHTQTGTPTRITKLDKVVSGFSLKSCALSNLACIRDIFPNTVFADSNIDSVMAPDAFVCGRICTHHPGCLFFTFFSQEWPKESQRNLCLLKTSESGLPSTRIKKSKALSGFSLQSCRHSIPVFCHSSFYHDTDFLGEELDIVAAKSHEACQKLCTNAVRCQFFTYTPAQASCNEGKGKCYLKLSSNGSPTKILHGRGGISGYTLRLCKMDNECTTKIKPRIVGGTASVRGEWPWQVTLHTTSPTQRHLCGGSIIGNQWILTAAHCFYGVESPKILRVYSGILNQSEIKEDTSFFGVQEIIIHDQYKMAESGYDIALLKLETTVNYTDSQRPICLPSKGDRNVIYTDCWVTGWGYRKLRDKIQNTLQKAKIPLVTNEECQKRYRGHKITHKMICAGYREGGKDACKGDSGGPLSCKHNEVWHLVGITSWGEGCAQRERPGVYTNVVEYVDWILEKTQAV
purified human Factor XIa, sequence (P03951 whole entry partner, looked up): as the sequence (P03951 whole entry, looked up) above

purified human plasma kallikrein, sequence (P03952 whole entry, looked up): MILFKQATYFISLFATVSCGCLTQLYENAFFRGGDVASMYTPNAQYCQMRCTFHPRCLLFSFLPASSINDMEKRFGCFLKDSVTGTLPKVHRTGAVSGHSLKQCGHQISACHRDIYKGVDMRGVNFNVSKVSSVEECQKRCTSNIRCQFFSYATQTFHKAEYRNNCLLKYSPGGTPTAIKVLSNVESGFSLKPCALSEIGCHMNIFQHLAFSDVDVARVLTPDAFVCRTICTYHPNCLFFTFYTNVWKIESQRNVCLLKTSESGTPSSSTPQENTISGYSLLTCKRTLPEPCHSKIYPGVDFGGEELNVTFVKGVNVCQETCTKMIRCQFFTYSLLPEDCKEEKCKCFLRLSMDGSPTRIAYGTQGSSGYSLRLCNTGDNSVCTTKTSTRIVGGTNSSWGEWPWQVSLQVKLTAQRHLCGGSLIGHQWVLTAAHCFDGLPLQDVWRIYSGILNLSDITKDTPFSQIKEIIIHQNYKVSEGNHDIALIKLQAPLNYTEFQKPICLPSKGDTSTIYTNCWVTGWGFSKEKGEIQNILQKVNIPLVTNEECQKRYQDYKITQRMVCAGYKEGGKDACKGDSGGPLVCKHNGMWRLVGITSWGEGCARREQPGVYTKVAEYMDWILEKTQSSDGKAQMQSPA
purified human plasma kallikrein, sequence (P03952 whole entry partner, looked up): as the sequence (P03952 whole entry, looked up) above

| SMILES | pKi [1] | pKi [2] |
| --- | --- | --- |
| COC(=O)Nc1ccc2c(c1)NC(=O)[C@H](C)CCC[C@H](N1CCC(c3c(C(F)(F)F)ccc(Cl)c3F)=CC1=O)c1cc-2ccn1 [Example 25, Methyl N-[(10R,14S)-14-{4-[3-chloro-2-fluoro-6-(trifluoromethyl)phenyl]-6-oxo-1,2,3,6-tetrahydropyridin-1-yl}-10-methyl-9-oxo-8,16-diazatricyclo[13.3.1.0^2,7]nonadeca-1(19),2,4,6,15,17-hexaen-5-yl]carbamate, TFA salt] | 7.92 | 10.00 |
| COC(=O)Nc1ccc2c(c1)NC(=O)[C@H](C)CCC[C@H](N1CCC(c3c(C#N)ccc(Cl)c3F)=CC1=O)c1cc-2cc(OC)n1 [Example 26, Methyl N-[(10R,14S)-14-[4-(3-chloro-6-cyano-2-fluorophenyl)-6-oxo-1,2,3,6-tetrahydropyridin-1-yl]-17-methoxy-10-methyl-9-oxo-8,16-diazatricyclo[13.3.1.0^2,7]nonadeca-1(18),2,4,6,15(19),16-hexaen-5-yl]carbamate] | 9.00 | 10.05 |
| C[C@@H]1CCC[C@H](N2CCC(c3c(Br)ccc(Cl)c3F)=CC2=O)c2cc(ccn2)-c2ccc(C(=O)O)cc2NC1=O [Example 28, (14S)-14-[4-(6-Bromo-3-chloro-2-fluorophenyl)-6-oxo-1,2,3,6-tetrahydropyridin-1-yl]-10-methyl-9-oxo-8,16-diazatricyclo[13.3.1.0^2,7]nonadeca-1(19),2(7),3,5,15,17-hexaene-5-carboxylic acid, TFA salt] | 6.71 | < 6.35 |
| C[C@@H]1CCC[C@H](N2CCC(c3c(Br)ccc(Cl)c3F)=CC2=O)c2cc(ccn2)-c2ccc(C(N)=O)cc2NC1=O [Example 29, (14S)-14-[4-(6-Bromo-3-chloro-2-fluorophenyl)-6-oxo-1,2,3,6-tetrahydropyridin-1-yl]-10-methyl-9-oxo-8,16-diazatricyclo[13.3.1.0^2,7]nonadeca-1(19),2(7),3,5,15,17-hexaene-5-carboxamide, TFA salt] | 8.52 | 8.54 |
| COC(=O)Nc1ccc2c(c1)NC(=O)[C@H](C)CCC[C@H](N1CCC(c3c(C#N)ccc(Cl)c3F)=CC1=O)c1cc-2cc(=O)[nH]1 [Example 30, Methyl N-[(10R,14S)-14-[4-(3-chloro-6-cyano-2-fluorophenyl)-6-oxo-1,2,3,6-tetrahydropyridin-1-yl]-10-methyl-9,17-dioxo-8,16-diazatricyclo[13.3.1.0^2,7]nonadeca-1(18),2,4,6,15(19)-pentaen-5-yl]carbamate, TFA salt] | 8.52 | 9.68 |
| COC(=O)Nc1ccc2c(c1)NC(=O)[C@H](C)CCC[C@H](N1CCC(c3c(OC(F)F)ccc(Cl)c3F)=CC1=O)c1ccnc-2c1 [Example 31, Methyl N-[(10R,14S)-14-{4-[3-chloro-6-(difluoromethoxy)-2-fluorophenyl]-6-oxo-1,2,3,6-tetrahydropyridin-1-yl}-10-methyl-9-oxo-8,18-diazatricyclo[13.3.1.0^2,7]nonadeca-1(19),2,4,6,15,17-hexaen-5-yl]carbamate, TFA salt] | 8.52 | 10.40 |
| COC(=O)Nc1ccc2c(c1)NC(=O)[C@H](C)CCC[C@H](N1CCC(c3c(OC(F)F)ccc(Cl)c3F)=CC1=O)c1cc-2ccn1 [Example 32, Methyl N-[(10R,14S)-14-{4-[3-chloro-6-(difluoromethoxy)-2-fluorophenyl]-6-oxo-1,2,3,6-tetrahydropyridin-1-yl}-10-methyl-9-oxo-8,16-diazatricyclo[13.3.1.0^2,7]nonadeca-1(19),2,4,6,15,17-hexaen-5-yl]carbamate, TFA salt] | 8.22 | 10.22 |
| C[C@@H]1CCC[C@H](N2CCC(c3c(C#N)ccc(Cl)c3F)=CC2=O)c2cc(ccn2)-c2ccc(C(N)=O)cc2NC1=O [Example 33, (10R,14S)-14-[4-(3-Chloro-6-cyano-2-fluorophenyl)-6-oxo-1,2,3,6-tetrahydropyridin-1-yl]-10-methyl-9-oxo-8,16-diazatricyclo[13.3.1.0^2,7]nonadeca-1(19),2,4,6,15,17-hexaene-5-carboxamide, TFA salt] | 8.52 | 8.69 |
| COC(=O)Nc1ccc2c(c1)NC(=O)[C@H](C)CCC[C@H](N1CCC(c3cc(Cl)ccc3C(F)(F)F)=CC1=O)c1cc-2ccn1 [Example 36, Methyl N-[(10R,14S)-14-{4-[5-chloro-2-(trifluoromethyl)phenyl]-6-oxo-1,2,3,6-tetrahydropyridin-1-yl}-10-methyl-9-oxo-8,16-diazatricyclo[13.3.1.0^2,7]nonadeca-1(19),2,4,6,15,17-hexaen-5-yl]carbamate, TFA salt] | 8.10 | 10.05 |
| Cc1nnc(Nc2ccc3c(c2)NC(=O)[C@H](C)CCC[C@H](N2CCC(c4c(F)ccc(Cl)c4F)=CC2=O)c2ccnc-3c2)o1 [Example 37, (10R,14S)-14-[4-(3-Chloro-2,6-difluorophenyl)-6-oxo-1,2,3,6-tetrahydropyridin-1-yl]-10-methyl-5-[(5-methyl-1,3,4-oxadiazol-2-yl)amino]-8,18-diazatricyclo[13.3.1.0^2,7]nonadeca-1(19),2(7),3,5,15,17-hexaen-9-one, TFA salt] | 9.00 | 9.06 |
| CC1CCC[C@H](N2CCC(c3c(Br)ccc(Cl)c3F)=CC2=O)c2cc(ccn2)-c2ccc(-c3nnc[nH]3)cc2NC1=O (stereo partly drawn) [Example 38, (14S)-14-[4-(6-Bromo-3-chloro-2-fluorophenyl)-6-oxo-1,2,3,6-tetrahydropyridin-1-yl]-10-methyl-5-(4H-1,2,4-triazol-3-yl)-8,16-diazatricyclo[13.3.1.0^2,7]nonadeca-1(19),2(7),3,5,15,17-hexaen-9-one, TFA salt] | 8.22 | 8.56 |
| C[C@@H]1CCC[C@H](N2CCC(c3c(F)ccc(Cl)c3F)=CC2=O)c2cc(ccn2)-c2ccc(Nc3nnc(C4CC4)o3)cc2NC1=O [Example 39, (10R,14S)-14-[4-(3-Chloro-2,6-difluorophenyl)-6-oxo-1,2,3,6-tetrahydropyridin-1-yl]-5-[(5-cyclopropyl-1,3,4-oxadiazol-2-yl)amino]-10-methyl-8,16-diazatricyclo[13.3.1.0^2,7]nonadeca-1(19),2(7),3,5,15,17-hexaen-9-one, TFA salt] | 8.70 | 9.17 |
| COCc1nnc(Nc2ccc3c(c2)NC(=O)[C@H](C)CCC[C@H](N2CCC(c4c(F)ccc(Cl)c4F)=CC2=O)c2cc-3ccn2)o1 [Example 41, (10R,14S)-14-[4-(3-Chloro-2,6-difluorophenyl)-6-oxo-1,2,3,6-tetrahydropyridin-1-yl]-5-{[5-(methoxymethyl)-1,3,4-oxadiazol-2-yl]amino}-10-methyl-8,16-diazatricyclo[13.3.1.0^2,7]nonadeca-1(19),2,4,6,15,17-hexaen-9-one, TFA salt] | 8.70 | 9.16 |
| C[C@@H]1CCC[C@H](N2CCC(c3c(Br)ccc(Cl)c3F)=CC2=O)c2cc(ccn2)-c2ccccc2NC1=O [Example 45, (10R,14S)-14-[4-(6-Bromo-3-chloro-2-fluorophenyl)-6-oxo-1,2,3,6-tetrahydropyridin-1-yl]-10-methyl-8,16-diazatricyclo[13.3.1.0^2,7]nonadeca-1(19),2,4,6,15,17-hexaen-9-one, TFA salt] | 8.15 | 8.68 |
| C[C@@H]1CCC[C@H](N2CCC(c3c(C#N)ccc(C#N)c3F)=CC2=O)c2cc(ccn2)-c2ccccc2NC1=O [Example 46, (10R,14S)-14-[4-(3,6-Dicyano-2-fluorophenyl)-6-oxo-1,2,3,6-tetrahydropyridin-1-yl]-10-methyl-8,16-diazatricyclo[13.3.1.0^2,7]nonadeca-1(19),2,4,6,15,17-hexaen-9-one, TFA salt] | 6.17 | 6.49 |
| C[C@@H]1CCC[C@H](N2CCC(c3cccc(Cl)c3F)=CC2=O)c2cc(ccn2)-c2ccccc2NC1=O [Example 47, (10R,14S)-14-[4-(3-Chloro-2-fluorophenyl)-6-oxo-1,2,3,6-tetrahydropyridin-1-yl]-10-methyl-8,16-diazatricyclo[13.3.1.0^2,7]nonadeca-1(19),2,4,6,15,17-hexaen-9-one, TFA salt] | 7.18 | 7.06 |
| C[C@@H]1CCC[C@H](N2CCC(c3c(C#N)ccc(Cl)c3F)=CC2=O)c2cc(ccn2)-c2ccccc2NC1=O [Example 49, 4-Chloro-3-fluoro-2-{1-[(10R,14S)-10-methyl-9-oxo-8,16-diazatricyclo[13.3.1.0^2,7]nonadeca-1(19),2,4,6,15,17-hexaen-14-yl]-6-oxo-1,2,3,6-tetrahydropyridin-4-yl}benzonitrile, TFA salt] | 8.52 | 8.97 |
| C[C@@H]1CCC[C@H](N2CCC(c3c(F)cccc3C#N)=CC2=O)c2cc(ccn2)-c2ccccc2NC1=O [Example 50, 3-Fluoro-2-{1-[(10R,14S)-10-methyl-9-oxo-8,16-diazatricyclo[13.3.1.0^2,7]nonadeca-1(19),2,4,6,15,17-hexaen-14-yl]-6-oxo-1,2,3,6-tetrahydropyridin-4-yl}benzonitrile, TFA salt] | 6.89 | 6.99 |
| C[C@@H]1CCC[C@H](N2CCC(c3c(C4CC4)ccc(Cl)c3F)=CC2=O)c2cc(ccn2)-c2ccccc2NC1=O [Example 52, (10R,14S)-14-[4-(3-Chloro-6-cyclopropyl-2-fluorophenyl)-6-oxo-1,2,3,6-tetrahydropyridin-1-yl]-10-methyl-8,16-diazatricyclo[13.3.1.0^2,7]nonadeca-1(19),2,4,6,15,17-hexaen-9-one, TFA salt] | 6.71 | 7.34 |
| C[C@@H]1CCC[C@H](N2CCC(c3c(F)ccc(Cl)c3F)=CC2=O)c2cc(ccn2)-c2ccc(NC(=O)OCCO)cc2NC1=O [Example 54, 2-Hydroxyethyl N-[(10R,14S)-14-[4-(3-chloro-2,6-difluorophenyl)-6-oxo-1,2,3,6-tetrahydropyridin-1-yl]-10-methyl-9-oxo-8,16-diazatricyclo[13.3.1.0^2,7]nonadeca-1(19),2,4,6,15,17-hexaen-5-yl]carbamate, TFA salt] | 9.00 | 10.10 |
